Patent US12479877B2, “Methods for purifying steviol glycosides and uses of the same” (PureCircle Sdn. Bhd., priority 2010, dated 2025)

Key:
[1] = system: one experienced panelist; experiment: Taste evaluation of Reb X against Reb A and Reb D, multi-sip and swallow taste method; type: in vivo, human
Method: The taste properties of a sample of Reb X were studied against Rebaudioside A (Reb A) and Rebaudioside D (Rb D) samples. Rb A was obtained from Cargill (lot #1040) and Reb-D was obtained from PureCircle (lot #11/3/08).
The samples were prepared at 500 ppm for sweetness evaluation by adding moisture compensated mass into a 100 mL sample of carbon-treated water and citric buffer solutions.
Citric buffer was prepared by mixing 1.171 g/L citric acid, 0.275 g/L sodium citrate and 0.185 g/L sodium benzoate with carbon-treated water, with a final pH of 3.22. The mixtures were moderately stirred at room temperature. The Reb X sample was then evaluated against the two control Reb A and Reb D samples in water and citric buffer at room temperature (RT) and at 4° C. in an ice bath by one experienced panelist for any tasting quality determinations using the controlled, multi-sip and swallow taste method shown below:
1. Take first sip (˜1.8 mL) of control and swallow. Wait for 15-25 sec, then take second sip of control and wait for 15-25 sec.
2. Take first sip of the experimental sample, wait for 15-25 sec, then take second sip. Compare to second sip of control.
3. Repeat steps #1 and #2 for the third and fourth sips of the control and experimental samples to confirm the initial finding.
The taste evaluation results of the Reb X samples against the control Reb A and Reb D samples at 500 ppm in citric buffer (CB) at 4° C. and RT are described in Table 4.

[2] = Solubility of 600 ppm Reb X stock solution in citric buffer; type: physicochemical; settings: 0.06% (w/v) in citric buffer at up to 52° C. for ca. 15-20 minutes
Method: The isosweetness levels of Reb X in a citric buffer system at room temperature and 4° C. were evaluated. A 600 ppm stock solution of Reb X was prepared by adding a mass of 0.15 g into a 250 mL sample of citric buffer (CB) solution. The mixture was moderately stirred at warmer temperature (up to ca. 52° C.) on a heated stirrer for about 15-20 minutes and then cooled. The citric buffer was prepared by adding 1.6 g citric acid, 0.6 g potassium citrate and 0.253 g sodium benzoate in 1 L of carbon-treated water. The pH of the mixture was 3.1. […] The controls of 0.75%, 2%, 4%, 6%, 8%, 10% and 15% sucrose equivalence (SE) were also prepared by adding sugar (w/v) into the CB. The mixtures were moderately stirred and then ready for the isosweetness determination test. The Reb X samples were then evaluated against the control sugar samples in citric buffer at room temperature (RT) and 4° C. (in an ice bath) by one experienced taster for an isosweetness determination using the controlled, multi-sip and swallow taste method.
Despite the stronger mouthfeel or texture effect (syrupy, thicker) at ca. 15% sucrose, it was difficult to determine the isosweetness levels for at least 400 ppm of Reb X due to its thinner mouthfeel but broader and more impact sweetness temporal profile as well as its significant sweet lingering.

Solubility and appearance [2]: very soluble and clear (colorless)
SMILES: C=C1C[C@@]23CCC4[C@](C)(C(=O)OC5OC(CO)C(O)C(OC6OC(CO)C(O)C(O)C6O)C5OC5OC(CO)C(O)C(O)C5O)CCC[C@@]4(C)[C@@H]2CCC1(OC1OC(CO)C(O)C(OC2OC(CO)C(O)C(O)C2O)C1OC1OC(CO)C(O)C(O)C1O)C3 (stereo partly drawn) [Reb X, (13-[2-O-β-D-glucopyranosyl-3-O-β-D-glucopyranosyl-β-D-glucopyranosyl)oxy] ent kaur-16-en-19-oic acid-[2-O-β-D-glucopyranosyl-3-O-β-D-glycopyranosyl) ester]
Taste quality at room temperature versus 4° C. ([1]; 500 ppm in citrate buffer): similar | Taste quality compared with Reb A and Reb D ([1]; 500 ppm in citrate buffer): much better than Reb A or Reb D | Sweet temporal profile and sweetness linger ([1]; 500 ppm in citrate buffer, compared with Reb A): fatty-like or broader sweet temporal profile and less sweetness linger than that of Reb A | Taste Properties ([1]; 500 ppm in citric buffer (pH 3.22), room temperature): Clean sweet taste. Broad and full sweetness profile. Moderate | Astringency, sweetness intense (depth) and bitterness notes ([1]; 500 ppm, citrate buffer system, compared with Reb A): did not have the astringency or sweetness intense (depth) and bitterness notes compared to that of the Reb A
